Test results as given in US20210403567A1, “METHODS OF TREATING CERVICAL CANCER BY ADMINISTERING A PD-1 INHIBITOR” (priority 2020, published 2021).
Like-named read-outs stand apart in the source and are kept apart here.

Tests used:
[1] = tested on: recurrent or metastatic cervical cancer that has progressed after first-line platinum-based treatment
[2] = tested on: cervical cancer; conditions: 12/98; cited from earlier work
[3] = tested on: cervical cancer; conditions: 5/19; squamous histology only; cited from earlier work
[4] = tested on: cervical cancer; conditions: patient population of 60% squamous histology; cited from earlier work
[5] = subgroup with IC chemotherapy selected prior to randomisation: Gemcitabine (n = 108 vs 121)
[6] = subgroup with IC chemotherapy selected prior to randomisation: Irinotecan (n = 26 vs 19)

Molecule: Nc1ccn([C@@H]2O[C@H](CO)[C@@H](O)C2(F)F)c(=O)n1 [gemcitabine, reference compound]
- Median OS (95% CI) [1, 5]: 9.0 (7.0-10.6) months
- Median PFS (95% CI) [1, 5]: 2.8 (2.1-3.9) months
- ORR [1, 5]: 5.0%

Molecule: pembrolizumab
- ORR in the cervical cancer cohort [2]: 12.2%

Molecule: nivolumab
- objective response rate [3]: 26.3%
- response rate [4]: 4%

Molecule: CCc1c2c(nc3ccc(OC(=O)N4CCC(N5CCCCC5)CC4)cc13)-c1cc3c(c(=O)n1C2)COC(=O)[C@]3(O)CC [irinotecan, reference compound]
- Median OS (95% CI) [1, 6]: 11.8 (6.9-14.9) months
- Median PFS (95% CI) [1, 6]: 4.2 (1.6-8.3) months
- ORR [1, 6]: 15.8%
